{"source": "patent US20240082238A1", "about": "“COMPOSITIONS AND METHODS FOR TREATING CANCER” (UNIVERSITY OF IOWA RESEARCH FOUNDATION, priority 2021, published 2024)", "key": {"[1]": {"system": "Hec50co cells", "test": "Intracellular accumulation of PTX-OG (flow cytometry, confocal microscopy)", "assay_type": "cell-based, human", "conditions": "400 nM PTX-OG alone, 2 h", "procedure": "Intracellular accumulation of PTX using flow cytometer. To evaluate PTX cellular accumulation in the presence or absence of CIP2b, Hec50co cells were seeded at a density of 200,000 cells per well in 6-well plates in complete medium and incubated for 24 h. Afterward, the medium was removed, and a DMSO-based solution (0.1 mg/mL) of fluorescently labeled PTX (PTX-OG) was added at 400 nM per well, and the volume was completed to 2 mL with the medium. Also, CIP2b (in DMSO) was added at 4 or 40 μM, either alone or in combination with PTX-OG. After 2 h, the medium was removed, the cells were washed thoroughly with DPBS, trypsinized, and collected by centrifugation (230 xg, 5 min). Finally, cells were analyzed by flow cytometry (FACScan).\nIntracellular accumulation of PTX using confocal microscopy. Intracellular accumulation of PTX co-delivered with CIP2b was also studied qualitatively in Hec50co cells using confocal microscopy. […]\n(§1) In vitro activity of CIP2b NPs. […] An equivalent quantity of blank NPs was also tested to account for the effect of the PLGA NPs alone without CIP2b. […] An equivalent quantity of blank NPs was also added, either alone or with PTX-OG. Samples were then analyzed using a flow cytometer, as described above."}, "[2]": {"system": "Hec50co cells", "test": "Cell cycle assay (PI flow cytometry)", "assay_type": "cell-based, human", "conditions": "24 h", "procedure": "Cell Cycle assay. Hec50co cells were seeded at […] cells per well in 6-well plates for 48 h in complete medium. The medium was then removed and replaced with PTX (1, 5, and 10 nM), CIP2b (10 μM), combinations of PTX with CIP2b, or with a fresh complete medium. Cells were incubated with the treatments for 24 h, then the medium was removed, and the cells were washed twice with Dulbecco's Phosphate-Buffered Saline (DPBS 1×, ThermoFisher Scientific), trypsinized (0.4 mL/well), and collected by centrifugation (230 xg, 5 min). Cells were then fixed using 70% ethanol stored at 4° C. for 30 min, then incubated with 100 μg/mL RNase A in 2% v/v NP-40 Surfact-Amps® solution (0.5 mL/sample) for 30 min at 37° C. Then, PI (50 μg/mL, 0.5 mL/sample) was added prior to analysis by flow cytometry (FACScan, BD Biosciences) using CellQuest software (Ver. 3.3). The data were further analyzed by ModFit LT (Ver. 5.0) to calculate the percent of cells in each phase of the cell cycle (i.e., G0/G1, S, G2/M).\nas §1"}, "[3]": {"system": "tubulin", "test": "Fluorescence-based tubulin polymerization assay", "assay_type": "biochemical", "conditions": "3 μM", "excerpt": "Tubulin polymerization assay. Microtubules are one of the major cytoskeleton components in the cells, and they play an essential role in the spindle formation generated by α and β tubulin polymerization. Agents targeting microtubules function through two different mechanisms. To elaborate, several compounds like taxanes (e.g., PTX) promote the assembly of microtubules and are known to stabilize the microtubes whereas other compounds such as vinca alkaloid and colchicine are known to interrupt the spindle formation via inhibiting the tubulin polymerization; thereby, destabilize the microtubules. The result of both scenarios is metaphase arrest which induces apoptosis. To test the tubulin activity, a fluorescence-based tubulin polymerization assay (Cat. No. BK011P, Cytoskeleton Inc., Denver, CO) was performed according to the manufacturer's instructions. Briefly, stock solutions of PTX and CIP2b (in DMSO) were diluted with UltraPure™ water to make a final concentration of 3 μM. […] Before starting the experiment, the 96-well plate and fluorimeter (SpectraMax M5 Microplate Reader) were pre-warmed to 37° C. […] Samples and tubulin were added to a 96-well plate, and the plate was inserted into the plate reader. Kinetic measurements started immediately, and data were collected and analyzed."}, "[4]": {"test": "Cytotoxicity assay (MTS) and bright-field microscopy, LLC-PK1-MDR1 cells", "assay_type": "cell-based, porcine", "conditions": "pig, LLC-PK1-MDR1 cells (overexpressing P-gp), PTX alone, maximum concentration used 50 nM", "procedure": "Cytotoxicity assay. Hec50co cells were seeded at 1500 cells per well in 96-well plates for 24 h in a complete medium. Later, the medium was removed and PTX, CIP2b, or CIP (all dissolved in DMSO and diluted in complete medium) were added to cells as either monotherapies or in combinations, and the plates were incubated for 72 hours. Then, the complete medium was removed and MTS reagent in the complete medium was added to wells, and the plates were incubated for 1-4 hours according to the manufacturer's protocol. Finally, the absorbance was recorded at 490 nm using a Spectra Max plus 384 Microplate Spectrophotometer (Molecular Devices, Sunnyvale, CA). Percentage cell viability was expressed as the average absorbance of the test group relative to that of the control group (untreated cells). […] Synergism was detected following the Chou-Talalay method (CI<1 indicates synergism) (Chou T C. Cancer research. 2010; 70(2):440-6, doi: 10.1158/0008-5472.CAN-09-1947) using CompuSyn software (Ver. 1.0). P-gp efflux transporter. Overexpression of the MDR1 gene, reflected in the abundance of the P-gp efflux pump, is one of the major reasons for PTX chemoresistance in cancer. In this study, LLC-PK1-WT and LLC-PK1-MDR1 cell lines were used. MTS assay and the PTX intracellular accumulation experiment were performed as previously described above."}}, "note": "Several values for one entry are separate records, joined by “and”; a condition that tells them apart may be missing. Equal values may be shown once.", "data": [{"smiles": "CC(=O)O[C@H]1C(=O)[C@@]2(C)[C@H]([C@H](OC(=O)c3ccccc3)[C@]3(O)C[C@H](OC(=O)[C@H](O)[C@@H](NC(=O)c4ccccc4)c4ccccc4)C(C)=C1C3(C)C)[C@]1(OC(C)=O)CO[C@@H]1C[C@@H]2O", "note": "[PTX, paclitaxel]", "values": [{"measurement": "cellular uptake of PTX-OG", "setting": "[1]", "result": "readily taken up"}, {"measurement": "cell population at the G2/M phase", "setting": "[2]; 5 nM PTX", "result": "approximately 46%"}, {"measurement": "cell population at the G2/M phase", "setting": "[2]; 10 nM PTX", "result": "~70% and 69.5%"}, {"measurement": "rate of tubulin polymerization", "setting": "[3]", "result": "promoted"}, {"measurement": "onset of tubulin polymerization", "setting": "[3]; tubulin alone 15 min", "result": "approximately 5 minutes"}, {"measurement": "IC50 at 72 h", "setting": "[4]", "result": "> 50", "unit": "nM"}]}]}
